Reference: patent publication US20150018301A1, “LRRK-2-Mediated Neuronal Toxicity” (THE JOHNS HOPKINS UNIVERSITY, priority 2009, published 2015)

How the values were obtained:
LRRK2 WT [1] = target: T1, LRRK2 WT (Homo sapiens, UniProt Q5S007); test: In vitro kinase assay: LRRK2 autophosphorylation; type: biochemical; settings: for LRRK2 autophosphorylation Average ± SEM: compound 16 μM, phosphorylation normalized to absence of compound, mean ± S.E.M. of three experiments
LRRK2 WT [2] = target: T1, LRRK2 WT; test: In vitro kinase assay: LRRK2-mediated MBP phosphorylation; type: biochemical; settings: for MBP phosphorylation Average ± SEM: compound 16 μM, 30° C., 15 min, normalized to absence of compound, mean ± S.E.M. of three experiments

T1 sequence (Q5S007 whole entry): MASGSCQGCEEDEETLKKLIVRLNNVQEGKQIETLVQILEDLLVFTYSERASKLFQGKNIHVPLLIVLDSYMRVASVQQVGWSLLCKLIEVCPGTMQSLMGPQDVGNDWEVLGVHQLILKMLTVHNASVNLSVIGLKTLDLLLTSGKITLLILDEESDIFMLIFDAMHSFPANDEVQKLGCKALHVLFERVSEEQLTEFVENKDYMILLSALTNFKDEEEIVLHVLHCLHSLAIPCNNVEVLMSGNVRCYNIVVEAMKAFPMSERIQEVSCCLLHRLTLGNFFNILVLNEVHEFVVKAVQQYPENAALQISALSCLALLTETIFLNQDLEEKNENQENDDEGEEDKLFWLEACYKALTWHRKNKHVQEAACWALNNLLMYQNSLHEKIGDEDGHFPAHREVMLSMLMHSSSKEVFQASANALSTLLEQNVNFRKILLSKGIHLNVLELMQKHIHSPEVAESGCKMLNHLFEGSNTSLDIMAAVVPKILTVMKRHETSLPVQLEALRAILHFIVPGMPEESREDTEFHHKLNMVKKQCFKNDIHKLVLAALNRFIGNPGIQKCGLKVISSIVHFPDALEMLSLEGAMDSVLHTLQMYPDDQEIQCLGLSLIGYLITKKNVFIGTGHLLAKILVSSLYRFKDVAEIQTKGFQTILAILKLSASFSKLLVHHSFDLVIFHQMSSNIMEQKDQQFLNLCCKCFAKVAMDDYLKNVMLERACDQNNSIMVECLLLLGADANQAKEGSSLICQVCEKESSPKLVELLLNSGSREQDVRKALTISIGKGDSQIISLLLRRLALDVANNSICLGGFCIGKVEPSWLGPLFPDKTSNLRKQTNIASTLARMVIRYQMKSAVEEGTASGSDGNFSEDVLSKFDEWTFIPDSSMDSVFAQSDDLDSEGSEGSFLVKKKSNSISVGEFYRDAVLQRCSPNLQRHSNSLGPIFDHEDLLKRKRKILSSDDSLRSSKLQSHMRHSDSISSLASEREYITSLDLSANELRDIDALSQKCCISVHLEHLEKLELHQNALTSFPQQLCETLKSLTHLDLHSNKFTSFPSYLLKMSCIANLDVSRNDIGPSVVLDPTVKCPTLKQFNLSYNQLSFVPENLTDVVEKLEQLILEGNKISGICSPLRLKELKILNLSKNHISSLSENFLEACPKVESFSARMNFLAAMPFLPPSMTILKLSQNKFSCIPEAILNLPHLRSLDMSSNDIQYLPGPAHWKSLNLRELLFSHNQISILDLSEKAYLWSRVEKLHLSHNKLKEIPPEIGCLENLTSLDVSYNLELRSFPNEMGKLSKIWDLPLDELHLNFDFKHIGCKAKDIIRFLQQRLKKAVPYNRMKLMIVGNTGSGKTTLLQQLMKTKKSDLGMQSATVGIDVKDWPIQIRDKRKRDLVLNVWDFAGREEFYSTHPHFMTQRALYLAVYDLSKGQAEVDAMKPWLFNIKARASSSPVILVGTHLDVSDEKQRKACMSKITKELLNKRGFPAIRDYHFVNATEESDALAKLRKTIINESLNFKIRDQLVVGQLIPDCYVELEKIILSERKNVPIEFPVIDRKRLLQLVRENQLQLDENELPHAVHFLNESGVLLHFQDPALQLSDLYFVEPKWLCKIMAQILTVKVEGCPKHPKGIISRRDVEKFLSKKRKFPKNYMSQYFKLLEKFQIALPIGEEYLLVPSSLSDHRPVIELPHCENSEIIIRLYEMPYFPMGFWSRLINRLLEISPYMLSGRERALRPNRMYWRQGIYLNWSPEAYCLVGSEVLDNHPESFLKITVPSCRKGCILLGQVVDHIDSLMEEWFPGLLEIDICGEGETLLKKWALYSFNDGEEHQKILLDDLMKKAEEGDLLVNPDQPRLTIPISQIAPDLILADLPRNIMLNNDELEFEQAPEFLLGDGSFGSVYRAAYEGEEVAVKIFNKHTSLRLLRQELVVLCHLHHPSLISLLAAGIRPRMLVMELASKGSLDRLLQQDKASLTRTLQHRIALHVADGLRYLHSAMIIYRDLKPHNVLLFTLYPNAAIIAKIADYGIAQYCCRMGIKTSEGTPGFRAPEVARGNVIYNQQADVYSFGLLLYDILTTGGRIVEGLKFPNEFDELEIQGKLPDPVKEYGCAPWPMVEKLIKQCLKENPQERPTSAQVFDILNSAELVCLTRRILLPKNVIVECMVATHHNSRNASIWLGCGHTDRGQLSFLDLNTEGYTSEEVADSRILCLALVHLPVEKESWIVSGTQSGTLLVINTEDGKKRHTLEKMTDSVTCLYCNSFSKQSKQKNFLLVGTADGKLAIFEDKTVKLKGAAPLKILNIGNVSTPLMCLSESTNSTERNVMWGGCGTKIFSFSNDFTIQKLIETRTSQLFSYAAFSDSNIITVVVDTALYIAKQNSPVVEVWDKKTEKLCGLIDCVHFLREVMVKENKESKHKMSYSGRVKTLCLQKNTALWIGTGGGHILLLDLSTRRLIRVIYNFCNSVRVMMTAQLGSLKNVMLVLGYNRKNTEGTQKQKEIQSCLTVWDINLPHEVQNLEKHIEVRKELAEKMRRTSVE

| SMILES | LRRK2 autophosphorylation Average ± SEM (LRRK2 WT [1]) | MBP phosphorylation Average ± SEM (LRRK2 WT [2]) | effect on LRRK2 autophosphorylation (LRRK2 WT [1]; screen at 16 μM) | effect on LRRK2-mediated phosphorylation of MBP (LRRK2 WT [2]; screen at 16 μM) |
| --- | --- | --- | --- | --- |
| C[S+]([O-])c1ccc(-c2nc(-c3ccc(F)cc3)c(-c3ccncc3)[nH]2)cc1 (centres unmarked) [Inhibitor 3] | 75.1 ± 7.8 % of control | 105.9 ± 15.9 % of control | – | – |
| CC(C)(C)n1nc(-c2ccc(Cl)cc2)c2c(N)ncnc21 [Inhibitor 52] | 45.7 ± 22.1 % of control | 98.1 ± 44.2 % of control | – | – |
| O=S(=O)(NCCNC/C=C/c1ccc(Br)cc1)c1cccc2cnccc12 [Inhibitor 35] | 90.8 ± 2.5 % of control | 85.3 ± 54.2 % of control | – | – |
| Brc1ccc([C@H]2CN3CCSC3=N2)cc1 [Inhibitor 75] | 75.9 ± 3.9 % of control | 83.2 ± 50.5 % of control | – | – |
| C/C(O)=C(\C#N)C(=O)Nc1cc(Br)ccc1Br [Inhibitor 50] | 66.8 ± 14.2 % of control | 138.8 ± 53.5 % of control | – | – |
| Cl.c1ccc(C2CN3CCSC3=N2)cc1 (centres unmarked) [Inhibitor 79] | 75.0 ± 2.3 % of control | 138.8 ± 33.9 % of control | – | – |
| CC1CNCCN1S(=O)(=O)c1cccc2cnccc12 (centres unmarked) [Inhibitor 4] | 80.3 ± 8.2 % of control | 88.0 ± 26.4 % of control | – | – |
| O=c1c(O)c(-c2ccc(O)c(O)c2)oc2cc(O)cc(O)c12 [Inhibitor 62, Quercetin dihydrate] | 39.2 ± 39.9 % of control | 70.1 ± 40.5 % of control | – | – |
| CN(C)c1ccc(/C=C2\C(=O)Nc3ccccc32)cc1 [Inhibitor 54] | 37.5 ± 13.9 % of control | 112.8 ± 34.9 % of control | – | – |
| CC(C)(C)c1cc(/C=C(\C#N)C(N)=S)cc(C(C)(C)C)c1O [Inhibitor 28] | 69.8 ± 12.0 % of control | 76.7 ± 4.5 % of control | – | – |
| O=C1Nc2ccccc2/C1=C1\Nc2ccccc2C1=O [Inhibitor 69] | 82.0 ± 4.2 % of control | 110.3 ± 28.4 % of control | – | – |
| CC(C)n1cnc2c(NCc3ccccc3)nc(NCCO)nc21 [Inhibitor 45] | 56.2 ± 30.8 % of control | 111.7 ± 69.7 % of control | – | – |
| O=C(O)c1cc(NCc2cc(O)ccc2O)ccc1O [Inhibitor 39, 2-hydroxy-5-(2,5-dihydroxybenzyl-amino) benzoic acid] | 103.0 ± 4.4 % of control | 148.9 ± 71.4 % of control | – | – |
| C#COC1(C)[C@@H]2CC[C@@H](O2)C1(C)C(=O)O (some centres unmarked) [Inhibitor 71] | 75.9 ± 2.1 % of control | 99.8 ± 3.4 % of control | – | – |
| CN[C@@H]1C[C@H]2O[C@@](C)([C@@H]1OC)n1c3ccccc3c3c4c(c5c6ccccc6n2c5c31)C(=O)NC4 [Inhibitor 6, Staurosporine, reference compound] | 1.9 ± 1.0 % of control | 9.2 ± 6.4 % of control | substantially inhibited | substantially inhibited |
| O=P(O)(O)CCc1ccc2ccccc2c1O [Inhibitor 21] | 120.8 ± 54.1 % of control | 138.2 ± 36.9 % of control | – | – |
| N#C/C(=C\c1ccc(O)c(O)c1)C(N)=S [Inhibitor 14] | 80.5 ± 32.2 % of control | 110.5 ± 29.3 % of control | – | – |
| CC(C)CC(NC(=O)[C@H](CCC(=O)O)NC(=O)CNC(=O)c1ccc(/C=C/C(=O)O)cc1)C(N)=O (some centres unmarked) [Inhibitor 84] | 63.9 ± 12.0 % of control | 124.1 ± 37.2 % of control | – | – |
| COc1ccc(S(=O)(=O)N(CCO)c2ccccc2CN(C)C/C=C/c2ccc(Cl)cc2)cc1 [Inhibitor 41] | 104.6 ± 26.6 % of control | 164.7 ± 40.0 % of control | – | – |
| N#C/C(=C/c1cc(Cl)cc(Cl)c1)c1cccnc1 [Inhibitor 10] | 90.8 ± 30.7 % of control | 45.2 ± 46.1 % of control | – | – |
| Cc1cc(O)c2c(=O)c3c(O)cc(O)c4c5c(O)cc(O)c6c(=O)c7c(O)cc(C)c8c1c2c(c34)c(c78)c65 [Inhibitor 32] | 57.4 ± 30.1 % of control | 160.9 ± 12 % of control | – | – |
| COc1cc2ncnc(Nc3cccc(Cl)c3)c2cc1OC [Inhibitor 18] | 63.7 ± 28.0 % of control | 110.0 ± 44.0 % of control | – | – |
| N#CC(C#N)=C(N)/C(C#N)=C/c1ccc2[nH]ccc2c1 [Inhibitor 27] | 73.2 ± 8.8 % of control | 79.5 ± 17.8 % of control | – | – |
| N#C/C(=C\c1ccc(O)c(O)c1)C(N)=O [Inhibitor 13] | 81.0 ± 13.4 % of control | 117.3 ± 18.5 % of control | – | – |
| COc1cccc(-c2cc(=O)c3ccccc3o2)c1N [Inhibitor 1] | 77.9 ± 30.6 % of control | 77.5 ± 55.0 % of control | – | – |
| C[C@@]12C(=O)OC(=O)[C@]1(C)[C@H]1CC[C@@H]2O1 [Inhibitor 72] | 69.1 ± 8.8 % of control | 109.7 ± 22.4 % of control | – | – |
| CC(C)c1cc(/C=C(\C#N)C(=O)NCCCc2ccccc2)cc(C(C)C)c1O [Inhibitor 63] | 68.5 ± 1.5 % of control | 101.3 ± 25.3 % of control | – | – |
